Experimental data reported in PubChem BioAssay (NCI).
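Test compounds were applied to cells in 96-well plates for 48 hours at 5 doses. The concentration for full growth arrest is given as TGI.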

Legend:
Experiment in all cases: DTP human tumour cell line panel, 48 h
786-0 renal = test system: 786-0 renal
A549 NSCLC = test system: A549 NSCLC
ACHN renal = test system: ACHN renal
BT-549 breast = test system: BT-549 breast
CAKI-1 renal = test system: CAKI-1 renal
CCRF-CEM leukemia = test system: CCRF-CEM leukemia
COLO 205 colon = test system: COLO 205 colon
DU-145 prostate = test system: DU-145 prostate
EKVX NSCLC = test system: EKVX NSCLC
HCC-2998 colon = test system: HCC-2998 colon
HCT-116 colon = test system: HCT-116 colon
HCT-15 colon = test system: HCT-15 colon
HL-60(TB) leukemia = test system: HL-60(TB) leukemia
HOP-62 NSCLC = test system: HOP-62 NSCLC
HOP-92 NSCLC = test system: HOP-92 NSCLC
HS 578T breast = test system: HS 578T breast
HT29 colon = test system: HT29 colon
IGROV1 ovarian = test system: IGROV1 ovarian
K-562 leukemia = test system: K-562 leukemia
KM12 colon = test system: KM12 colon
LOX IMVI melanoma = test system: LOX IMVI melanoma
M14 melanoma = test system: M14 melanoma
MALME-3M melanoma = test system: MALME-3M melanoma
MCF7 breast = test system: MCF7 breast
MDA-MB-231 breast = test system: MDA-MB-231 breast
MDA-MB-435 = test system: MDA-MB-435
MDA-N = test system: MDA-N
MOLT-4 leukemia = test system: MOLT-4 leukemia
NCI-H226 lung = test system: NCI-H226 lung
NCI-H23 lung = test system: NCI-H23 lung
NCI-H460 lung = test system: NCI-H460 lung
NCI/ADR-RES ovarian = test system: NCI/ADR-RES ovarian
OVCAR-3 ovarian = test system: OVCAR-3 ovarian
OVCAR-4 ovarian = test system: OVCAR-4 ovarian
OVCAR-5 ovarian = test system: OVCAR-5 ovarian
OVCAR-8 ovarian = test system: OVCAR-8 ovarian
PC-3 prostate = test system: PC-3 prostate
RPMI-8226 leukemia = test system: RPMI-8226 leukemia
RXF 393 renal = test system: RXF 393 renal
SF-268 CNS = test system: SF-268 CNS
SF-295 CNS = test system: SF-295 CNS
SF-539 CNS = test system: SF-539 CNS
SK-MEL-2 melanoma = test system: SK-MEL-2 melanoma
SK-MEL-28 melanoma = test system: SK-MEL-28 melanoma
SK-MEL-5 melanoma = test system: SK-MEL-5 melanoma
SK-OV-3 ovarian = test system: SK-OV-3 ovarian
SN12C renal = test system: SN12C renal
SNB-19 CNS = test system: SNB-19 CNS
SNB-75 CNS = test system: SNB-75 CNS
SR leukemia = test system: SR leukemia
SW-620 colon = test system: SW-620 colon
T-47D breast = test system: T-47D breast
TK-10 renal = test system: TK-10 renal
U251 CNS = test system: U251 CNS
UACC-257 melanoma = test system: UACC-257 melanoma
UACC-62 melanoma = test system: UACC-62 melanoma
UO-31 renal = test system: UO-31 renal
NCI-H522 lung = test system: NCI-H522 lung

Measured: TGI

O=C(OCCN=C1c2ccccc2CCc2ccccc21)c1ccccc1
39 µM: MOLT-4 leukemia
50.2 µM: SR leukemia
34.2 µM: RPMI-8226 leukemia
> 100 µM: 786-0 renal | A549 NSCLC | ACHN renal | BT-549 breast | CAKI-1 renal | CCRF-CEM leukemia | COLO 205 colon | DU-145 prostate | EKVX NSCLC | HCC-2998 colon | HCT-116 colon | HCT-15 colon | HL-60(TB) leukemia | HOP-62 NSCLC | HOP-92 NSCLC | HS 578T breast | HT29 colon | IGROV1 ovarian | K-562 leukemia | KM12 colon | LOX IMVI melanoma | M14 melanoma | MALME-3M melanoma | MCF7 breast | MDA-MB-231 breast | MDA-MB-435 | MDA-N | NCI-H226 lung | NCI-H23 lung | NCI-H460 lung | NCI/ADR-RES ovarian | OVCAR-3 ovarian | OVCAR-4 ovarian | OVCAR-5 ovarian | OVCAR-8 ovarian | PC-3 prostate | RXF 393 renal | SF-268 CNS | SF-295 CNS | SF-539 CNS | SK-MEL-2 melanoma | SK-MEL-28 melanoma | SK-MEL-5 melanoma | SK-OV-3 ovarian | SN12C renal | SNB-19 CNS | SNB-75 CNS | SW-620 colon | T-47D breast | TK-10 renal | U251 CNS | UACC-257 melanoma | UACC-62 melanoma | UO-31 renal

CN=C(NN)NS(=O)(=O)c1cc(C)c(Cl)cc1S
97.7 µM: NCI-H522 lung
74.7 µM: UO-31 renal
75.3 µM: HS 578T breast
> 100 µM: 786-0 renal | A549 NSCLC | BT-549 breast | CAKI-1 renal | CCRF-CEM leukemia | COLO 205 colon | DU-145 prostate | EKVX NSCLC | HCC-2998 colon | HCT-116 colon | HCT-15 colon | HL-60(TB) leukemia | HOP-62 NSCLC | HOP-92 NSCLC | HT29 colon | IGROV1 ovarian | K-562 leukemia | KM12 colon | LOX IMVI melanoma | M14 melanoma | MALME-3M melanoma | MCF7 breast | MDA-MB-231 breast | MDA-MB-435 | MDA-N | NCI-H226 lung | NCI/ADR-RES ovarian | OVCAR-3 ovarian | OVCAR-4 ovarian | OVCAR-5 ovarian | OVCAR-8 ovarian | PC-3 prostate | RPMI-8226 leukemia | RXF 393 renal | SF-268 CNS | SF-539 CNS | SK-MEL-2 melanoma | SK-MEL-28 melanoma | SK-MEL-5 melanoma | SK-OV-3 ovarian | SN12C renal | SNB-19 CNS | SNB-75 CNS | SR leukemia | SW-620 colon | T-47D breast | TK-10 renal | U251 CNS | UACC-257 melanoma | UACC-62 melanoma

O=C(OCCN1CCCCCC1)C(c1ccsc1)C1CCCCC1 (stereo unspecified)
30.8 µM: HCT-15 colon | SF-539 CNS
28.8 µM: OVCAR-3 ovarian
40.4 µM: SNB-19 CNS
24.2 µM: IGROV1 ovarian
36.8 µM: SF-268 CNS
50.6 µM: MOLT-4 leukemia
31.5 µM: HCC-2998 colon
31.4 µM: NCI/ADR-RES ovarian
32.2 µM: LOX IMVI melanoma | SNB-75 CNS
33.2 µM: DU-145 prostate
28.4 µM: MDA-N
32.3 µM: MDA-MB-435
70.6 µM: HL-60(TB) leukemia
31.8 µM: 786-0 renal | MDA-MB-231 breast | SK-OV-3 ovarian
22.7 µM: COLO 205 colon
31.6 µM: HT29 colon
36.2 µM: SK-MEL-28 melanoma
44.9 µM: PC-3 prostate
32.8 µM: M14 melanoma | SN12C renal
29.4 µM: CAKI-1 renal
26.9 µM: UO-31 renal
40.2 µM: CCRF-CEM leukemia
31.2 µM: HOP-92 NSCLC
39 µM: NCI-H23 lung
57.2 µM: SR leukemia
33.4 µM: SW-620 colon
33.1 µM: ACHN renal
17.8 µM: T-47D breast
28.2 µM: MALME-3M melanoma
32.4 µM: SF-295 CNS
33.5 µM: TK-10 renal
32.5 µM: OVCAR-5 ovarian
44.5 µM: A549 NSCLC
32.1 µM: KM12 colon | RPMI-8226 leukemia | U251 CNS
33 µM: MCF7 breast | NCI-H460 lung
34.5 µM: OVCAR-8 ovarian | UACC-257 melanoma
37.8 µM: HS 578T breast
35.7 µM: EKVX NSCLC
29.9 µM: HOP-62 NSCLC
29.6 µM: BT-549 breast | HCT-116 colon

COC1CC(OC2C(C)OC(OC3C(C)OC(OC4C(C)OC(O[C@H]5CC[C@@]6(C)C(=CC[C@]7(O)[C@@H]6C[C@@H](OC(=O)/C=C/c6ccccc6)[C@@]6(C)[C@]7(O)CC[C@@]6(O)C(C)=O)C5)CC4OC)CC3OC)CC2OC)OC(C)C1O (stereo partly specified)
> 12.5 µM: 786-0 renal | A549 NSCLC | ACHN renal | BT-549 breast | CAKI-1 renal | CCRF-CEM leukemia | COLO 205 colon | DU-145 prostate | EKVX NSCLC | HCC-2998 colon | HCT-116 colon | HCT-15 colon | HL-60(TB) leukemia | HOP-62 NSCLC | HOP-92 NSCLC | HS 578T breast | HT29 colon | IGROV1 ovarian | K-562 leukemia | KM12 colon | LOX IMVI melanoma | M14 melanoma | MALME-3M melanoma | MCF7 breast | MDA-MB-231 breast | MDA-MB-435 | MDA-N | MOLT-4 leukemia | NCI-H226 lung | NCI-H23 lung | NCI-H522 lung | NCI/ADR-RES ovarian | OVCAR-3 ovarian | OVCAR-4 ovarian | OVCAR-5 ovarian | OVCAR-8 ovarian | PC-3 prostate | RPMI-8226 leukemia | SF-268 CNS | SF-295 CNS | SF-539 CNS | SK-MEL-2 melanoma | SK-MEL-28 melanoma | SK-MEL-5 melanoma | SK-OV-3 ovarian | SN12C renal | SNB-19 CNS | SNB-75 CNS | SR leukemia | SW-620 colon | T-47D breast | TK-10 renal | U251 CNS | UACC-257 melanoma | UACC-62 melanoma | UO-31 renal
